SMILES	melting point [°C]
CC(C)c1ccc(NC(=O)N2CCN(c3ncnc4c(Cl)cc(Cl)cc34)CC2)cc1 [Compound 376, 4-(6,8-Dichloro-4-quinazolinyl)-N-(4-isopropylphenyl)-1-piperazinecarboxamide]	234 to 236
O=C(Nc1ccc(Oc2ccccc2)cc1)N1CCN(c2ncnc3c(Cl)cc(Cl)cc23)CC1 [Compound 377, 4-(6,8-Dichloro-4-quinazolinyl)-N-(4-phenoxyphenyl)-1-piperazinecarboxamide]	195 to 196
CC(=O)c1ccc(NC(=O)N2CCN(c3ncnc4c(Cl)cc(Cl)cc34)CC2)cc1 [Compound 378, N-(4-Acetylphenyl)-4-(6,8-dichloro-4-quinazolinyl)-1-piperazinecarboxamide]	187 to 188
CC(C)c1ccc(NC(=O)N2CCN(c3ncnc4c(I)cc(I)cc34)CC2)cc1 [Compound 379, 4-(6,8-Diiodo-4-quinazolinyl)-N-(4-isopropylphenyl)-1-piperazinecarboxamide]	267 to 269
O=C(Nc1ccc(Oc2ccccc2)cc1)N1CCN(c2ncnc3c(I)cc(I)cc23)CC1 [Compound 380, 4-(6,8-Diiodo-4-quinazolinyl)-N-(4-phenoxyphenyl)-1-piperazinecarboxamide]	242 to 244
COc1cc(OC)c2ncnc(N3CCN(C(=O)Nc4ccc(Oc5ccccc5)cc4)CC3)c2c1 [Compound 381, 4-(6,8-Dimethoxy-4-quinazolinyl)-N-(4-phenoxyphenyl)-1-piperazinecarboxamide]	109 to 110
COc1ccc2c(N3CCN(C(=O)Nc4ccc(Oc5ccccc5)cc4)CC3)ncnc2c1OC [Compound 383, 4-(7,8-Dimethoxy-4-quinazolinyl)-N-(4-phenoxyphenyl)-1-piperazinecarboxamide]	189 to 190
COc1ccc2c(N3CCN(C(=S)NCc4ccccc4)CC3)ncnc2c1OC [Compound 384, N-Benzyl-4-(7,8-dimethoxy-4-quinazolinyl)-1-piperazinethiocarboxamide]	158 to 160
Cn1c(=O)n(C)c2cc3c(N4CCN(C(=O)Nc5ccc([N+](=O)[O-])cc5)CC4)ncnc3cc21 [Compound 386, 4-(1,3-Dihydro-1,3-dimethyl-2-oxo-2H-imidazo[4,5-g]quinazolin-8-yl)-N-(4-nitrophenyl)-1-piperazinecarboxamide]	299 to 300
CCn1c(=O)n(C)c2cc3c(N4CCN(C(=O)Nc5ccc(Oc6ccccc6)cc5)CC4)ncnc3cc21 [Compound 387, 4-(1,3-Dihydro-3-ethyl-1-methyl-2-oxo-2H-imidazo[4,5-g]quinazolin-8-yl)-N-(4-phenoxyphenyl)-1-piperazinecarboxamide]	250 to 251
CCn1c(=O)n(C)c2cc3c(N4CCN(C(=S)NCc5ccccc5)CC4)ncnc3cc21 [Compound 388, N-Benzyl-4-(1,3-dihydro-3-ethyl-1-methyl-2-oxo-2H-imidazo[4,5-g]quinazolin-8-yl)-1-piperazinethiocarboxamide]	207 to 208
CCCn1c(=O)n(CCC)c2cc3c(N4CCN(C(=O)Nc5ccc(Oc6ccccc6)cc5)CC4)ncnc3cc21 [Compound 389, 4-(1,3-Dihydro-1,3-dipropyl-2-oxo-2H-imidazo[4,5-g]quinazolin-8-yl)-N-(4-phenoxyphenyl)-1-piperazinecarboxamide]	179 to 180
CCCCn1c(=O)n(CCCC)c2cc3c(N4CCN(C(=O)Nc5ccc(Oc6ccccc6)cc5)CC4)ncnc3cc21 [Compound 390, 4-(1,3-Dibutyl-1,3-dihydro-2-oxo-2H-imidazo[4,5-g]quinazolin-8-yl)-N-(4-phenoxyphenyl)-1-piperazinecarboxamide]	134 to 136
COc1cc2nc(C)nc(N3CCN(C(=O)Nc4ccc(Oc5ccccc5)cc4)CC3)c2cc1OC [Compound 391, 4-(6,7-Dimethoxy-2-methyl-4-quinazolinyl)-N-(4-phenoxyphenyl)-1-piperazinecarboxamide]	146 to 147
